Source: PubChem BioAssay AID248 (DTP/NCI, 2004)
Values joined by “and” are separate entries in the source; they are usually repeats but may differ in a detail not shown here. Equal entries are not always repeated. Inconclusive results and toxic doses are left out. Rule as the data show it: active = T/C of 150% or more; inactive = T/C below 125%.

System: L1210 leukemia ip in BDF1 mice, survival T/C
Assay: NCI In Vivo Anticancer Drug Screen. Data for tumor model L1210 Leukemia (intraperitoneal) in B6D2F1 (BDF1) mice
Settings: endpoint: mean survival time, higher = longer survival
Summary of the method: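 Tumor was transplanted into mice, which were then dosed with test compound or vehicle alone. Survival was recorded for each group, and the treated figure was expressed relative to the control figure.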

[1] = dose: 100.0 mg/kg/injection, schedule: Q01DX001 (ip), vehicle: saline
[2] = dose: 100.0 mg/kg/injection, schedule: Q04DX003 (ip), vehicle: saline
[3] = dose: 50.0 mg/kg/injection, schedule: Q01DX009 (ip), vehicle: Klucel (hydroxypropylcellulose) (HPC)
[4] = dose: 100.0 mg/kg/injection, schedule: Q04DX002 (ip), vehicle: saline with Tween-80
[5] = dose: 200.0 mg/kg/injection, schedule: Q04DX002 (ip), vehicle: saline with Tween-80
[6] = dose: 100.0 mg/kg/injection, schedule: Q04DX003 (ip), vehicle: saline with Tween-80
[7] = dose: 200.0 mg/kg/injection, schedule: Q04DX003 (ip), vehicle: saline with Tween-80
[8] = dose: 400.0 mg/kg/injection, schedule: Q04DX003 (ip), vehicle: saline with Tween-80
[9] = dose: 100.0 mg/kg/injection, schedule: Q01DX001 (ip), vehicle: carboxymethylcellulose (CMC)
[10] = dose: 100.0 mg/kg/injection, schedule: Q01DX009 (ip), vehicle: Klucel (hydroxypropylcellulose) (HPC)
[11] = dose: 200.0 mg/kg/injection, schedule: Q01DX009 (ip), vehicle: Klucel (hydroxypropylcellulose) (HPC)
[12] = dose: 100.0 mg/kg/injection, schedule: Q01DX001 (ip), vehicle: saline with Tween-80
[13] = dose: 200.0 mg/kg/injection, schedule: Q01DX001 (ip), vehicle: saline with Tween-80
[14] = dose: 400.0 mg/kg/injection, schedule: Q01DX009 (ip), vehicle: Klucel (hydroxypropylcellulose) (HPC)
[15] = dose: 100.0 mg/kg/injection, schedule: Q04DX002 (ip), vehicle: Klucel (hydroxypropylcellulose) (HPC)
[16] = dose: 200.0 mg/kg/injection, schedule: Q04DX002 (ip), vehicle: Klucel (hydroxypropylcellulose) (HPC)

Measured: T/C

CN(Cc1ccccc1)C(Cc1c[nH]c2ccccc12)C(=O)O (centres undefined)
inactive: dose: 25.0 mg/kg/injection, schedule: Q04DX003 (ip), vehicle: saline 111 % of control | dose: 50.0 mg/kg/injection, schedule: Q04DX003 (ip), vehicle: saline 108 % of control | [1] 100 % of control | [2] 94 % of control | dose: 150.0 mg/kg/injection, schedule: Q04DX003 (ip), vehicle: acetone 91 % of control | dose: 225.0 mg/kg/injection, schedule: Q04DX003 (ip), vehicle: acetone 109 % of control | dose: 335.0 mg/kg/injection, schedule: Q04DX003 (ip), vehicle: acetone 100 % of control

CCCC(C)C(C#N)c1ccccc1 (centres undefined)
inactive: dose: 25.0 mg/kg/injection, schedule: Q01DX009 (ip), vehicle: Klucel (hydroxypropylcellulose) (HPC) 101 % of control and 103 % of control | dose: 25.0 mg/kg/injection, schedule: Q04DX003 (ip), vehicle: Klucel (hydroxypropylcellulose) (HPC) 95 % of control | [3] 93 % of control and 98 % of control and 90 % of control | dose: 50.0 mg/kg/injection, schedule: Q04DX003 (ip), vehicle: Klucel (hydroxypropylcellulose) (HPC) 88 % of control | dose: 100.0 mg/kg/injection, schedule: Q04DX003 (ip), vehicle: Klucel (hydroxypropylcellulose) (HPC) 89 % of control

Nc1nc2ncc(CNc3ccc(C(=O)NC(CCC(=O)O)C(=O)O)cc3)nc2c(=O)[nH]1 (centres undefined)
inactive: dose: 1.6 mg/kg/injection, schedule: Q01DX009 (ip), vehicle: saline with Tween-80 93 % of control and 98 % of control | dose: 3.2 mg/kg/injection, schedule: Q01DX009 (ip), vehicle: saline with Tween-80 101 % of control and 109 % of control | dose: 6.3 mg/kg/injection, schedule: Q01DX009 (ip), vehicle: saline with Tween-80 93 % of control and 94 % of control | dose: 6.95 mg/kg/injection, schedule: Q01DX Z (ip), vehicle: carboxymethylcellulose (CMC) 96 % of control | dose: 12.5 mg/kg/injection, schedule: Q01DX009 (ip), vehicle: saline with Tween-80 101 % of control and 102 % of control | dose: 12.5 mg/kg/injection, schedule: Q04DX002 (ip), vehicle: saline with Tween-80 97 % of control and 100 % of control | dose: 13.9 mg/kg/injection, schedule: Q01DX Z (ip), vehicle: carboxymethylcellulose (CMC) 103 % of control | dose: 25.0 mg/kg/injection, schedule: Q01DX009 (ip), vehicle: saline with Tween-80 93 % of control and 100 % of control | dose: 25.0 mg/kg/injection, schedule: Q04DX002 (ip), vehicle: saline with Tween-80 97 % of control and 91 % of control | dose: 27.8 mg/kg/injection, schedule: Q01DX Z (ip), vehicle: carboxymethylcellulose (CMC) 101 % of control | dose: 50.0 mg/kg/injection, schedule: Q01DX009 (ip), vehicle: saline with Tween-80 98 % of control and 111 % of control | dose: 50.0 mg/kg/injection, schedule: Q04DX002 (ip), vehicle: saline with Tween-80 99 % of control and 100 % of control | dose: 55.6 mg/kg/injection, schedule: Q01DX Z (ip), vehicle: carboxymethylcellulose (CMC) 97 % of control | [4] 99 % of control and 102 % of control | [5] 103 % of control

Cc1ccc(S(=O)(=O)Nc2ccc3ncccc3c2)cc1
inactive: [1] 103 % of control | dose: 200.0 mg/kg/injection, schedule: Q01DX001 (ip), vehicle: saline 102 % of control | dose: 400.0 mg/kg/injection, schedule: Q01DX001 (ip), vehicle: saline 96 % of control

CC(C(=O)O)N(C)C(=O)OCc1ccccc1 (centres undefined)
inactive: dose: 100.0 mg/kg/injection, schedule: Q01DX001 (ip), vehicle: acetone 103 % of control | [2] 105 % of control | dose: 200.0 mg/kg/injection, schedule: Q01DX001 (ip), vehicle: acetone 101 % of control | dose: 200.0 mg/kg/injection, schedule: Q04DX003 (ip), vehicle: saline 90 % of control | dose: 400.0 mg/kg/injection, schedule: Q01DX001 (ip), vehicle: acetone 96 % of control | dose: 400.0 mg/kg/injection, schedule: Q04DX003 (ip), vehicle: saline 92 % of control

S=C1SCC(c2ccccc2)S1 (centres undefined)
inactive: [6] 92 % of control | [7] 92 % of control | [8] 89 % of control

Nc1nc(-c2ccccc2)c2ccccc2n1
inactive: [9] 101 % of control | dose: 200.0 mg/kg/injection, schedule: Q01DX001 (ip), vehicle: carboxymethylcellulose (CMC) 93 % of control | dose: 400.0 mg/kg/injection, schedule: Q01DX001 (ip), vehicle: carboxymethylcellulose (CMC) 104 % of control

COc1ccc([N+](=O)[O-])cc1NC(=O)Nc1ccc(CCO)cc1
inactive: [3] 92 % of control | [10] 105 % of control | [11] 97 % of control

Nc1nc(=O)n(CCCOc2ccc(NC(=O)Nc3cccc(S(=O)(=O)F)c3)cc2)cc1-c1ccc(Cl)c(Cl)c1
inactive: dose: 50.0 mg/kg/injection, schedule: Q01DX001 (ip), vehicle: saline with Tween-80 98 % of control | [12] 98 % of control | [13] 95 % of control

CC1Cc2c(Cl)cc(C(=O)NC(Cc3ccccc3)C(=O)O)c(O)c2C(=O)O1 (centres undefined)
inactive: dose: 0.12 mg/kg/injection, schedule: Q01DX009 (ip), vehicle: saline with Tween-80 95 % of control | dose: 0.25 mg/kg/injection, schedule: Q01DX009 (ip), vehicle: saline with Tween-80 93 % of control | dose: 0.5 mg/kg/injection, schedule: Q01DX009 (ip), vehicle: saline with Tween-80 96 % of control | dose: 1.0 mg/kg/injection, schedule: Q01DX009 (ip), vehicle: saline with Tween-80 96 % of control | dose: 50.0 mg/kg/injection, schedule: Q01DX001 (ip), vehicle: carboxymethylcellulose (CMC) 100 % of control | [9] 107 % of control

CC1CN=C(c2ccc(NC(=O)Nc3ccc(C4=NCC(C)N4)cc3)cc2)N1 (centres undefined)
inactive: dose: 0.62 mg/kg/injection, schedule: Q01DX Z (ip), vehicle: saline 109 % of control | dose: 1.25 mg/kg/injection, schedule: Q01DX Z (ip), vehicle: saline 114 % of control | dose: 2.5 mg/kg/injection, schedule: Q01DX Z (ip), vehicle: saline 118 % of control | dose: 5.0 mg/kg/injection, schedule: Q01DX Z (ip), vehicle: saline 111 % of control

COc1ccc(NC(=O)NC(C)(C)C)c(OC)c1
inactive: [10] 100 % of control | [11] 100 % of control | [14] 98 % of control

CC1(C)CN1P(=O)(Oc1ccc([N+](=O)[O-])cc1)N1CC1(C)C (centres undefined)
inactive: [15] 110 % of control | [16] 108 % of control

Cc1c(C(N)=O)no[n+]1[O-]
inactive: [15] 87 % of control | [16] 109 % of control

CC(C)(C)[C]1=Nc2cccc[c]2[Ge]1([CH3])[CH3]
inactive: [4] 108 % of control | [5] 93 % of control | dose: 400.0 mg/kg/injection, schedule: Q04DX002 (ip), vehicle: saline with Tween-80 97 % of control

CCC(C)NC1=CC(=O)c2ccccc2C1=O (centres undefined)
inactive: [12] 95 % of control | [13] 94 % of control

Cc1cc(NC(=O)Nc2cccc3ccccc23)no1
inactive: [10] 104 % of control | [15] 89 % of control | [11] 98 % of control | [16] 102 % of control | [14] 98 % of control | dose: 400.0 mg/kg/injection, schedule: Q04DX002 (ip), vehicle: Klucel (hydroxypropylcellulose) (HPC) 89 % of control

Cn1nnnc1/C(=C/c1ccccc1)C(=O)O
inactive: [6] 95 % of control | [7] 95 % of control | [8] 90 % of control
